{"source": "paper PMC10111413", "about": "(ACS Infectious Diseases, 2023)", "key": {"[1]": {"tested_on": "G. mellonella larvae", "conditions": "in vivo", "from_the_text": "Given the promising in vitro activity of relacidamide (5), along with its high serum stability, low hemolytic activity, and ease of synthesis, we further evaluated its efficacy in an established in vivo infection model using G. mellonella larvae. The G. mellonella infection model has gained popularity in recent years and provides a convenient method to assess the in vivo effectiveness and toxicity of novel antibiotics.[15],[16] […] The larvae were first injected with either vehicle (PBS) or A. baumannii BV94 suspension in the right second proleg. The moth larvae were then injected in the left second proleg with either PBS (untreated), colistin at 100 mg/kg or 200 mg/kg, or relacidamide (5) at 100 mg/kg or 200 mg/kg. The G. mellonella larvae were then incubated for 72 h, and their survival was assessed twice per day. Relacidamide (5) induced 50% survival after 72 h at 100 mg/kg and 70% survival at 200 mg/kg, whereas none of the larvae treated with colistin survived, and only 10% of the untreated larvae survived after 72 h."}, "[2]": {"tested_on": "E. coli ATCC 25922 mcr-1", "format": "cell-based", "conditions": "CLSI microbroth dilution, Mueller Hinton broth, 18 h at 37 °C, visual read-out, three technical replicates; mcr-1 colistin resistance plasmid", "experimental": "(§1) The antibacterial activities of relacidine A (3a) and B (4a), along with diastereomers 3b and 4b–d and relacidamide (5), were assessed using a standard microbroth dilution assay to establish minimum inhibitory concentration (MIC) values against a panel of Gram-negative bacteria (Table 1). The MIC values measured for synthetic relacidine A (3a) and B (4a) agree well with those previously published.[9] […] Relacidine A (3a) and B (4a), as well as relacidamide (5), were further tested against a panel of colistin-resistant A. baumannii clinical isolates, which confirmed their ability to prevent the growth of colistin-resistant isolates (Supplemental Table S2). […] Also of interest was the finding that while relacidine B (4a) induced <1% hemolysis, a substitution of either the L-Ala or L-Ser to D-Ala or D-Ser increased hemolytic activity to 8–12%. […] The greater hydrolytic stability of relacidine B would appear to be attributable to the increased steric bulk of the Ala side chain next to the ester linkage (compared with the methylene of Gly in relacidine A), which may hinder the nucleophilic attack of water at the ester carbonyl.\n(§2) Colistin sulfate was purchased from Activate Scientific. Kanamycin monosulfate was purchased from MP Biomedicals. E. coli ATCC 25922, S. aureus USA300 (ATCC BAA1717), and K. pneumoniae ATCC 13883 belong to the American Type Culture Collection (ATCC). P. aeruginosa PAO1 was kindly provided by L.H.C. Quarles Van Ufford of Utrecht University, Utrecht, The Netherlands. E. coli ATCC 25922 MCR-1 was transfected in-house using the pGDP2-MCR1 plasmid kindly provided by Yong-Xin Li of The University of Hong Kong, Hong Kong, China. Sheep blood agar plates (ref. PB5039A) were purchased from Thermo Scientific. Tryptic soy broth (ref. 02-200-500) was purchased from Scharlab. Mueller-Hinton broth (ref. X927.1) was purchased from Carl Roth. Polypropylene 96-wells plates (ref. 3879) were purchased from Corning.\n(§3) MICs were determined according to Clinical and Standards Laboratory Institute (CLSI) guidelines. Blood agar plates were inoculated with glycerol stocks of E. coli ATCC 25922, K. pneumoniae ATCC 13883, P. aeruginosa PAO1, and S. aureus USA300. The inoculated agar plates were then incubated for 16 h at 37 °C. Individually grown colonies were subsequently used to inoculate 5 mL aliquots of tryptic soy broth (TSB) that were then incubated at 37 °C with shaking at 220 rpm. E. coli 25922 MCR-1 glycerol stock was used to inoculate 5 mL of TSB supplemented with kanamycin that was then incubated for 16 h at 37 °C with shaking at 220 rpm. The next day, the culture was diluted 100-fold in TSB supplemented with kanamycin and incubated at 37 °C with shaking at 220 rpm. In parallel, the lipopeptide antibiotic DMSO stocks to be assessed were serially diluted with Mueller Hinton broth (MHB) in polypropylene 96-well plates (50 μL in each well). Colistin sulfate stocks were dissolved in water before being diluted with MHB. Aliquots of the inoculated TSB were incubated until an OD600 of around 0.5 was reached. The bacterial suspensions were then diluted with MHB (2 × 10^5 cfu mL^–1) and added to the microplates containing the test compounds (50 μL to each well). The well plates were sealed with an adhesive membrane, and after 18 h of incubation at 37 °C with shaking at 600 rpm, the wells were visually inspected for bacterial growth. MIC values reported are based on three technical replicates and defined as the lowest concentration of the compound that prevented visible growth of bacteria."}, "[3]": {"tested_on": "K. pneumoniae ATCC 13883", "format": "cell-based", "conditions": "ATCC 13883, 18 h", "experimental": "as §1, §2, §3"}, "[4]": {"tested_on": "P. aeruginosa PAO1", "format": "cell-based", "conditions": "PAO1, 18 h", "experimental": "as §1, §2, §3"}, "[5]": {"tested_on": "S. aureus USA300", "format": "cell-based", "conditions": "USA300, 18 h", "experimental": "as §1, §2, §3"}, "[6]": {"tested_on": "E. coli ATCC 25922", "format": "cell-based", "conditions": "ATCC 25922, 18 h", "experimental": "as §1, §2, §3"}, "[7]": {"tested_on": "A. baumannii NCTC 13304", "format": "cell-based", "conditions": "NCTC 13304, 18 h", "experimental": "(§4) VIII. Antimicrobial testing\n(§5) Table S2. Minimum inhibitory concentrations (MICs) determined against panel of previously characterized colistin-resistant A. baumannii clinical isolates5\n(§6) Strain Relacidine A (3a) Relacidine B (4a) Relacidamide (5) Colistin […]\n(§7) aMIC values given in µg/ml.\n(§8) All minimum inhibitory concentrations were determined according to Clinical and Standards Laboratory Institute (CLSI) guidelines. Blood agar plates were inoculated from glycerol stocks of the different A. baumannii strains used and then incubated for 16 h at 37 °C . Individually grown colonies were subsequently used to inoculate 5 mL aliquots of TSB that were then incubated at 37 °C. In parallel, the lipopeptide antibiotics DMSO stocks to be assessed were serially diluted with cation-adjusted MHB in polypropylene 96-well plates (50 µL in each well). Colistin sulfate stocks were dissolved in water before being diluted with cation-adjusted MHB. The A. baumannii inoculated TSB aliquots were incubated until an OD600 of around 0.5 was reached. The bacterial suspensions were then diluted with cation-adjusted MHB (2 x 10^5 CFU mL-1) and added to the microplates containing the test compounds (50 µL to each well). The well-plates were sealed with an adhesive membrane and after 18 h of incubation at 37 °C visually inspected for bacterial growth. MIC values reported are based on three technical replicates and defined as the lowest concentration of the compound that prevented visible"}, "[8]": {"tested_on": "A. baumannii HUMC1", "format": "cell-based", "conditions": "HUMC1, 18 h", "experimental": "as §4, §5, §6, §7, §8"}, "[9]": {"tested_on": "A. baumannii LAC-4", "format": "cell-based", "conditions": "LAC-4, 18 h", "experimental": "as §4, §5, §6, §7, §8"}, "[10]": {"tested_on": "A. baumannii BV173", "format": "cell-based", "conditions": "BV173, 18 h", "experimental": "as §4, §5, §6, §7, §8"}, "[11]": {"tested_on": "A. baumannii BV95", "format": "cell-based", "conditions": "BV95, 18 h", "experimental": "as §4, §5, §6, §7, §8"}, "[12]": {"tested_on": "A. baumannii ATCC 17978", "format": "cell-based", "conditions": "ATCC 17978, 18 h", "experimental": "as §4, §5, §6, §7, §8"}, "[13]": {"tested_on": "A. baumannii NCTC 13420", "format": "cell-based", "conditions": "NCTC 13420, 18 h", "experimental": "as §4, §5, §6, §7, §8"}, "[14]": {"tested_on": "A. baumannii BV94", "format": "cell-based", "conditions": "BV94, 18 h", "experimental": "as §4, §5, §6, §7, §8"}, "[15]": {"tested_on": "A. baumannii BV172", "format": "cell-based", "conditions": "BV172, 18 h", "experimental": "as §4, §5, §6, §7, §8"}}, "note": "Where a SMILES comes first, the peptide text is derived from it. Bridges are numbered along the chain shown (N, C = ends). [ ]: non-standard residue; d: D form. The star is where a group is joined. ξ: configuration not given here. Hexanoyl(4ξ-Me) = CCC(C)CCC(=O)*; dOrn = NCCC[C@@H](N)C(=O)O; Orn = NCCC[C@H](N)C(=O)O; Dap = NC[C@H](N)C(=O)O", "data": [{"smiles": "CCC(C)CCC(=O)N[C@H](CO)C(=O)N[C@H](Cc1ccc(O)cc1)C(=O)N[C@H](Cc1c[nH]c2ccccc12)C(=O)N[C@H](CCCN)C(=O)N[C@@H](CCCN)C(=O)NCC(=O)N[C@H](CCCN)C(=O)N[C@@H](Cc1c[nH]c2ccccc12)C(=O)N[C@H]1CNC(=O)CNC(=O)[C@H](CO)NC(=O)CNC(=O)[C@H]([C@@H](C)CC)NC1=O", "note": "(stereo partly drawn) [compound 5, Relacidamide] ({Hexanoyl(4ξ-Me)}-[dS][dY][dW][dOrn][Orn]G[dOrn]W[Dap]IGSG; lactam 9-C)", "values": [{"measurement": "tolerability in G. mellonella larvae", "setting": "[1]", "value": "well tolerated up to the highest tested dose"}, {"measurement": "MIC E. coli ATCC 25922 mcr-1", "setting": "[2]", "value": "2 to 4", "unit": "µg/mL"}, {"measurement": "MIC K. pneumoniae ATCC 13883", "setting": "[3]", "value": 4, "unit": "µg/mL"}, {"measurement": "MIC P. aeruginosa PAO1", "setting": "[4]", "value": 8, "unit": "µg/mL"}, {"measurement": "MIC S. aureus USA300", "setting": "[5]", "value": ">32", "unit": "µg/mL"}, {"measurement": "MIC E. coli ATCC 25922", "setting": "[6]", "value": "2 to 4", "unit": "µg/mL"}, {"measurement": "MIC A. baumannii NCTC 13304", "setting": "[7]", "value": 4, "unit": "µg/mL"}, {"measurement": "MIC A. baumannii HUMC1", "setting": "[8]", "value": 8, "unit": "µg/mL"}, {"measurement": "MIC A. baumannii LAC-4", "setting": "[9]", "value": 8, "unit": "µg/mL"}, {"measurement": "MIC A. baumannii BV173", "setting": "[10]", "value": 16, "unit": "µg/mL"}, {"measurement": "MIC A. baumannii BV95", "setting": "[11]", "value": 8, "unit": "µg/mL"}, {"measurement": "MIC A. baumannii ATCC 17978", "setting": "[12]", "value": 4, "unit": "µg/mL"}, {"measurement": "MIC A. baumannii NCTC 13420", "setting": "[13]", "value": 16, "unit": "µg/mL"}, {"measurement": "MIC A. baumannii BV94", "setting": "[14]", "value": 8, "unit": "µg/mL"}, {"measurement": "MIC A. baumannii BV172", "setting": "[15]", "value": 16, "unit": "µg/mL"}]}]}
